Assay results: US20110144155A1, “8-HYDROXYQUINOLINE DERIVATIVES FOR THE TREATMENT OF HEMATOLOGICAL MALIGNANCIES” (priority 2008, published 2011)

How the values were obtained:
[1] = test system: LP-1 myeloma cells; assay: Cell viability MTS assay, LP1; assay type: cell-based; conditions: 72 hours
Description: (§1) LP-1 myeloma cells, MDAY-D2 murine leukemia/lymphoma cells, and OCI-AML2 human leukemia cells and A549 lung cancer cells were treated with increasing concentrations of compounds 5AHQ, HNQ, BCQ, COQ, and DiiodoQ (Table 1). 72 hours after incubation, cell viability was determined by an MTS assay. […] . Given the effects on cultured cells, 5AHQ was evaluated in a mouse model of leukemia. K562 cells were injected subcutaneously into NOD SCID mice. […] .

[2] = test system: OCI-AML2 human leukemia cells; assay: Cell viability MTS assay, AML2; assay type: cell-based; conditions: 72 hours
Description: as §1

[3] = test system: MDAY-D2 murine leukemia/lymphoma cells; assay: Cell viability MTS assay, MDAY-D2; assay type: cell-based; conditions: 72 hours
Description: as §1

[4] = test system: A549 lung cancer cells; assay: Cell viability MTS assay, A549; assay type: cell-based; conditions: 72 hours
Description: as §1

[5] = Copper binding: stability constant and Cu:ligand ratio; assay type: physicochemical
[6] = test system: K562 human leukemia cells; assay: K562 leukemia xenograft in NOD/SCID mice; assay type: in vivo
Description: Sublethally irradiated (3.54 Gy) NOD/SCID mice were injected subcutaneously with K562 human leukemia cells. One week later, mice were then treated daily by oral gavage with 5AHQ (50 mg/kg) in water. Three weeks after injection of cells, mice were sacrificed, the subcutaneous tumor excised, and the weight and volume of the tumor measured.
(§2) Given the effects on leukemia and lymphoma cell lines and primary patient samples, the compounds were tested in a leukemia/lymphoma xenograft model. MDAY-D2 leukemia/lymphoma cells were injected intraperitoneally into DBA2 mice. Mice were then treated twice daily with oral clioquinol (100 mg/kg) for 10 days. Ten days after treatment, mice were sacrificed and the weight and volume of the intraperitoneal tumor was measured. […] Similar results were obtained with a K562 leukemia, MDAY-D2 leukemia/lymphoma and OCI AML2 human leukemia xenograft (FIG. 4) K562 leukemia, MDAY-D2 leukemia/lymphoma or OCI AML2 human leukemia cells were injected subcutaneous into sublethally irradiated NOD-Scid mice. Animals were subsequently treated with 5AHQ. The 5AHQ treatment was initiated when tumors reached volumes of 200 mm^3 at which time mice were randomized to receive 100 mg/kg of 5AHQ (treated group) or buffer control (untreated group) for 5 of 7 days. Caliper measurements were performed twice weekly to estimate tumor volume and differences compared between treated and untreated groups.
LP-1 myeloma cells, MDAY-D2 murine leukemia/lymphoma cells, and OCI-AML2 human leukemia cells and A549 lung cancer cells were treated with increasing concentrations of compounds 5AHQ, HNQ, BCQ, COQ, and DiiodoQ (Table 1). 72 hours after incubation, cell viability was determined by an MTS assay. […]. Given the effects on cultured cells, 5AHQ was evaluated in a mouse model of leukemia. K562 cells were injected subcutaneously into NOD SCID mice. […].

[7] = test system: MDAY-D2 leukemia/lymphoma; assay: MDAY-D2 subcutaneous tumor in NOD-Scid mice; assay type: in vivo; conditions: 100 mg/kg for 5 of 7 days
Description: as §2

[8] = test system: OCI AML2 human leukemia cells; assay: OCI AML2 xenograft in NOD-Scid mice; assay type: in vivo; conditions: OCI AML2 subcutaneous; 100 mg/kg for 5 of 7 days
Description: as §2

[9] = test system: myeloma cell lines; assay: Cell viability panel, myeloma cell lines; conditions: read-out: IC50, induced cell death
Description: (§3) Cells were cultured at 37° C. with 5% CO2 in a humid incubator.
(§4) Cell viability was assessed with the CellTiter96® Aqueous Non-Radioactive Assay kit according to manufactures' instructions (Promega).
(§5) The effects of clioquinol on the viability of acute leukemia/lymphoma (n=7), myeloma (n=14), and solid tumor (n=5) cell lines as well as primary AML samples (n=6) and primary normal hematopoietic cells (n=3) was tested.

[10] = test system: solid tumor cell lines; assay: Cell viability panel, solid tumor cell lines
Description: as §3, §4, §5

[11] = test system: acute leukemia/lymphoma cell lines; assay: Cell viability panel, acute leukemia/lymphoma cell lines; conditions: read-out: IC50, induced cell death
Description: as §3, §4, §5

[12] = target: T1, 20S proteasome (Homo sapiens, UniProt P28074); assay: Proteasome activity (chymotrypsin-like, Suc-LLVY-AMC); assay type: biochemical
T1 construct: Cellular proteins were extracted from cells with lysis buffer; endogenous in cells
T1 sequence (P28074 60-263): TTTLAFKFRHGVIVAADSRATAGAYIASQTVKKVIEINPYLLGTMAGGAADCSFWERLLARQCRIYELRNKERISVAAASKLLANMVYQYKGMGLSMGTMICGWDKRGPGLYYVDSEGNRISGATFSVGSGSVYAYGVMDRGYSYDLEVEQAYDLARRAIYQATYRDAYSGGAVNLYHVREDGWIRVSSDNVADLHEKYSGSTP
Description: Cellular proteins were extracted from cells with lysis buffer (50 mM HEPES pH 7.5, 150 mM NaCl, 2 mM ATP, and 1% Triton X-100). The chymotrypsin-like activity of the proteasome was measured by incubating equal amounts of protein with the preferential chymotrypsin-like substrate Suc-LLVY-AMC in assay buffer (50 mM Tris-HCl, pH 7.5, 150 mM NaCl) for two hours. After incubation, […] and the rate of free AMC was measured over time with a florescent spectrophotometric plate reader (excitation=380 nm, emission=460 nm).

[13] = test system: primary AML patient samples; assay: Cell viability, primary AML samples; assay type: cell-based; conditions: Homo sapiens; in 6/7 primary AML patient samples; forty-eight hours; read-out: IC50, induced cell death
[14] = test system: primary normal hematopoietic cells; assay: Cell viability, primary normal hematopoietic cells; assay type: cell-based; conditions: forty-eight hours
[15] = test system: cyclin D2 promoter; assay: High throughput screen for inhibitors of cyclin D2 transactivation (luciferase); assay type: cell-based, Mouse; conditions: NIH3T3 cells with c-maf; ~5 μM; sixteen hours
Source text: The promoter of cyclin D2 (−894 to −4), containing c-maf responsive element sequence (MARE), was cloned from HeLa cell genomic DNA and subcloned into the pGL2 luciferase reporter vector (Promega, Madison, Wis.). This construct was co-transfected with pcDNA3.1 containing a neomycin resistance gene into NIH3T3 wild type cells and NIH3T3 cells stably over-expressing c-maf-IRES-GFP. Cells stably expressing c-maf, GFP, and luciferase were selected for further application.
NIH3T3 cells stably expressing c-maf and the cyclin D2 promoter driving luciferase (13,000 cells per well) were plated in 96-well plates by the Biomek FX liquid handler (Beckman, Fullerton, Calif.). The same workstation was used for plate formatting and reagent distribution. […] After incubation, cyclin D2 transactivation was assessed by the luciferase assay and viability was assessed by the MTS assay.
Luciferase activity was assessed according to the manufacturer's instructions (Promega, Madison, Wis.). […] After 10 min incubation, an equal volume of Bright-Glo Luciferase substrate (Promega) was added and the luminescence signal was detected with a 96-well Luminoskan luminescence plate reader (Thermo Labsystem, Waltham, Mass.) with a 5 second integration. […]

[16] = test system: p21 and p27; assay: p21 and p27 expression in myeloma and leukemia cells; assay type: cell-based; conditions: low micromolar concentrations
Description: To prepare cytosolic extracts, NIH3T3 cells and myeloma cells were washed with phosphate-buffered saline (PBS, pH 7.4) and suspending in lysis buffer [10 mM Tris (pH 7.4), 150 mM NaCl, 0.1% Triton X-100, 0.5% sodium deoxycholate, and 5 mM EDTA] containing protease inhibitors (Complete tablets, Roche, Indianapolis, Ind.). Protein concentrations were determined by the Bradford assay. Immunoblot assays were performed by subjecting equal amounts of protein to SDS-PAGE gels followed by transfer to Nitrocellulose membranes. Membranes were probed with polyclonal rabbit anti-human cyclin D2 (0.5 μg/ml, both from Santa Cruz Biotech, Santa Cruz, Calif.), or monoclonal mouse-anti human p21 (1:200 v/v, Santa Cruz Biotech), monoclonal mouse-anti human p27 (1:2,500 v/v BD Transduction Laboratories), polyclonal mouse-anti human ubiquitin (1:2,000 v/v Calbiochem) and monoclonal mouse-anti-β-actin (1:10,000 v/v) (Sigma, St. Lois, Mo.). […] Detection was performed by the Enhanced Chemical Luminescence (ECL) method (Pierce, Rockford, Ill.).
Cyclin D2 is over-expressed in multiple myeloma (MM) and a subset of high-risk patients with acute myeloid leukemia (AML), contributing to their pathogenesis and chemoresistance (17, 18) (19). […] Sixteen hours after the addition of the compounds, luciferase expression was measured as a marker of cyclin D2 transactivation. […]

[17] = test system: myeloma and leukemia cells; assay: Cell cycle analysis; assay type: cell-based; conditions: low micromolar concentrations
Description: Cells were harvested, washed with cold PBS, suspended in 70% cold ethanol and incubated overnight at −20° C. Cells were then treated with 100 ng/ml of DNase-free RNase (InvitroGen) at 37° C. for 30 min, washed with cold PBS, and resuspended in PBS with 50 μg/ml of propidium iodine. DNA content was analyzed by flow cytometry (FACSCalibur, Becton Dickinson, Florida, USA). The percentage of cells in each phase of the cell cycle was calculated with ModiFit software (Becton Dickinson).
Cyclin D2 is over-expressed in multiple myeloma (MM) and a subset of high-risk patients with acute myeloid leukemia (AML), contributing to their pathogenesis and chemoresistance (17, 18) (19). One of the regulators of cyclin D2 is the oncogene c-maf that is also frequently over-expressed in MM (27). Therefore, it was sought to identify c-maf dependent and independent inhibitors of cyclin D2. To identify such small molecule inhibitors, a high throughput chemical genomics screen was developed. […] Sixteen hours after the addition of the compounds, luciferase expression was measured as a marker of cyclin D2 transactivation. […]

[18] = test system: MDAY-D2 leukemia/lymphoma cells; assay type: in vivo, mice; conditions: oral 100 mg/kg twice daily, 10 days
Description: DBA-2 mice were injected intraperitoneally with MDAY-D2 murine leukemia cells. Mice were then treated twice daily by oral gavage with clioquinol (100 mg/kg) dissolved in intralipid or intralipid control. Ten days after treatment, mice were sacrificed, the intraperitoneal tumor excised, and the weight and volume of the tumor measured.
as §2, with “Caliper measurements were performed twice weekly to estimate tumor volume and differences compared between treated and untreated groups.” left out

[19] = after oral administration, patients; cited from earlier work
[20] = target: T2, proteasome (Homo sapiens, UniProt P28074); assay: Proteasome inhibition in cells; conditions: resistant cells (for clioquinol including normal hematopoietic cells)
T2 sequence (P28074 60-263): T1 sequence (P28074 60-263)
Description: Cellular proteins were extracted from cells with lysis buffer (50 mM HEPES pH 7.5, 150 mM NaCl, 2 mM ATP, and 1% Triton X-100). The chymotrypsin-like activity of the proteasome was measured by incubating equal amounts of protein with the preferential chymotrypsin-like substrate Suc-LLVY-AMC in assay buffer (50 mM Tris-HCl, pH 7.5, 150 mM NaCl) for two hours. After incubation, was added and the rate of free AMC was measured over time with a florescent spectrophotometric plate reader (excitation=380 nm, emission=460 nm).

## Nc1ccc(O)c2ncccc12 [5AHQ, 5-amino-8-hydroxyquinoline]
[1]
  LD50 whole cell, LP1: 12.5 μm
[2]
  LD50 whole cell, AML2: 3.9 μm
[3]
  LD50 whole cell, MDAY-D2: 7.8 μm
[4]
  LD50 whole cell, A549: 31.25 μm
[5]
  K (stability): 9.84
[6]; 50 mg/kg in water, oral gavage, three weeks after injection of cells
  tumor weight and volume: reduced tumor weight and volume
[6]; K562 subcutaneous, 100 mg/kg for 5 of 7 days
  tumor growth (volume): delayed tumor growth
[6]; mouse, in vivo
  efficacy dose in mice xenografts: 50 mg/kg/day
  toxicity: No significant toxicity
[7]
  tumor growth (volume): delayed tumor growth
[8]
  tumor growth (volume): delayed tumor growth
[9]
  IC50: < 15 µM
[10]; read-out: IC50, induced cell death
  IC50: < 15 µM
[11]
  IC50: < 15 µM

## Oc1c(Br)cc(Cl)c2cccnc12 [BCQ, 7-bromo-5-chloro-8-hydroxyquinoline]
[1]
  LD50 whole cell, LP1: 31.25 μm
[12]
  IC50: 15.6 µM
[5]
  K (stability): 10.24

## Oc1ccc(Cl)c2cccnc12 [COQ, 5-chloro-8-hydroxyquinoline]
[1]
  LD50 whole cell, LP1: 31.25 μm
[2]
  LD50 whole cell, AML2: 3.9 μm
[3]
  LD50 whole cell, MDAY-D2: 3.9 μm
[4]
  LD50 whole cell, A549: 62.5 μm
[12]
  IC50: 62.5 µM
[5]
  K (stability): 8.89

## Oc1c(I)cc(Cl)c2cccnc12 [Clioquinol, 5-chloro-7-iodo-8-hydroxyquinoline, reference compound]
[1]
  LD50 whole cell, LP1: 31.25 μm
[2]
  LD50 whole cell, AML2: 3.9 μm
[3]
  LD50 whole cell, MDAY-D2: 15.6 μm
[4]
  LD50 whole cell, A549: 250 μm
[12]
  IC50: 12.5 µM
[5]
  K (stability): 9.06
[13]
  IC50: < 20 µM
[14]
  samples with induced cell death at IC50<20 μM: 0/3
[15]
  inhibition of cyclin D2 promoter (luciferase): c-maf independent inhibitors of the cyclin D2 promoter
[16]
  p21 and p27 expression: increased expression of p21 and p27
[17]
  cell cycle effect: arrested cells in the G1 phase
[18]
  tumor progression: delayed tumor progression
[19]
  trough serum concentration: 20 µM
[20]
  proteasomal inhibition in compound-resistant cells: no proteasomal inhibition was detected
[9]
  IC50: < 20 µM
[10]; solid tumor, forty-eight hours
  cell lines with induced cell death at IC50<20 μM: 0/5
[11]
  IC50: < 20 µM

## Oc1c(I)cc(I)c2cccnc12 [DiiodoQ, reference compound]
[2]
  LD50 whole cell, AML2: 62.5 μm
[3]
  LD50 whole cell, MDAY-D2: 31.25 μm
[4]
  LD50 whole cell, A549: 250 μm
[12]
  IC50: > 1000 µM

## O=[N+]([O-])c1ccc(O)c2ncccc12 [HNQ, 8-hydroxy-5-nitroquinoline]
[1]
  LD50 whole cell, LP1: 15.6 μm
[12]
  IC50: 15.6 µM
[5]
  K (stability): 9.13
